Source: article PMC7044277 (Nature Communications, 2020)
Where “and” joins values, the source holds several entries; their conditions need not be identical. Equal entries are not always repeated. Where two headings read alike, the source gives them in different places.

Legend:
[1] = biological target: DRD2 (D2 long receptor) wild-type (Homo sapiens, UniProt P14416); assay: Radioligand competition binding, [3H]-N-methylspiperone, HEK293T membranes
DRD3 wild-type = DRD3 wild-type (Homo sapiens, UniProt P35462); assay: Radioligand competition binding, [3H]-N-methylspiperone
DRD3 wild-type, sequence (P35462 whole entry): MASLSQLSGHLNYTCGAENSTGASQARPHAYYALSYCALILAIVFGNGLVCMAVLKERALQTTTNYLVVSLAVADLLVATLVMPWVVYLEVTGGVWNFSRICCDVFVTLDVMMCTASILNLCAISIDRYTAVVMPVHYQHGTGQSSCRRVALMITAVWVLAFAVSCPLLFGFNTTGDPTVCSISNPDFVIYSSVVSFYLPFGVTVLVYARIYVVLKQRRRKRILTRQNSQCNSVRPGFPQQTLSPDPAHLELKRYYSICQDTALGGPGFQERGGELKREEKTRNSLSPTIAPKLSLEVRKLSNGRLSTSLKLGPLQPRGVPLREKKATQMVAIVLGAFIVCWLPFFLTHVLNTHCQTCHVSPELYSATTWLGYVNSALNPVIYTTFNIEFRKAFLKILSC

[2] = biological target: T1, DRD4 (D4.4 variant) wild-type (Homo sapiens, UniProt P21917); assay: as above; settings: DRD4; [3H]-methylspiperone (0.8-1.0 nM); read-out: Ki
T1 sequence (P21917 1-419): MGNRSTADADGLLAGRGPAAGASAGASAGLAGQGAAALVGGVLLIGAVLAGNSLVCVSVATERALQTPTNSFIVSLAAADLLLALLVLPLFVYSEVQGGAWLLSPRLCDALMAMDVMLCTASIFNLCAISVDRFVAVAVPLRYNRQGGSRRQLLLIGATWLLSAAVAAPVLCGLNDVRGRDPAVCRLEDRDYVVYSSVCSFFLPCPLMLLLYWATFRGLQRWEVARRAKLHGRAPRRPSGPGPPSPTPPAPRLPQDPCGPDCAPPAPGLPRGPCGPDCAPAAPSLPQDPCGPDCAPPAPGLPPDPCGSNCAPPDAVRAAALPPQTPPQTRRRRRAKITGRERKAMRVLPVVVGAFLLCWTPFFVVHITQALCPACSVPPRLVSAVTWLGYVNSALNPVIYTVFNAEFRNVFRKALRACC

DRD3 F1063.28A [3] = biological target: T2, DRD3 F1063.28A (Homo sapiens, UniProt P35462, F106A); assay: biochemical; type: binding
T2 sequence (P35462 whole entry F106A): as the sequence (P35462 whole entry) above, with F106A counted along it

DRD2 (D2 long receptor) [4] = biological target: T3, DRD2 (D2 long receptor) (Homo sapiens, UniProt P14416); assay: Gαi/o-mediated cAMP inhibition (GloSensor split-luciferase cAMP reporter), HEK293T; type: cell-based; settings: for response, Fig_S11d dose-response source data: replicate values;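 for all read-outs here: compounds applied 15 min at room temperature, then luciferin plus 400 nM isoproterenol to raise cAMP through endogenous β2-adrenergic receptors, luminescence read 15 min later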
T3 sequence (P14416 whole entry): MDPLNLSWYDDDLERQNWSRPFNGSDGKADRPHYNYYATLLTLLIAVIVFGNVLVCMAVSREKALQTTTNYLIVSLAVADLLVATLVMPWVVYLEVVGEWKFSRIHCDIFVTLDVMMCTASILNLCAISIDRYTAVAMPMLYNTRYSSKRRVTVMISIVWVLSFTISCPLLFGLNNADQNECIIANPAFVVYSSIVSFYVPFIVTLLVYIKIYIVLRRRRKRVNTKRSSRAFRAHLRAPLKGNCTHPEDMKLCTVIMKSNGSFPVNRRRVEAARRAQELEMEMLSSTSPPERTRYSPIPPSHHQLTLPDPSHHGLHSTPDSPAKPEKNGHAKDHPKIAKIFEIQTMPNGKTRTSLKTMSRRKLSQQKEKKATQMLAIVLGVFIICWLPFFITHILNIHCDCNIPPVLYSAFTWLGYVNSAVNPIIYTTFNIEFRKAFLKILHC

DRD4 (D4.4 variant) [5] = biological target: T4, DRD4 (D4.4 variant) (Homo sapiens, UniProt P21917); assay: Gαi/o-mediated cAMP inhibition (GloSensor); type: cell-based; settings: DRD4; agonist, cAMP inhibition; read-out: EC50 ± SEM
T4 sequence (P21917 1-419): T1 sequence (P21917 1-419)

DRD2 F1103.28L [6] = biological target: T5, DRD2 F1103.28L (Homo sapiens, UniProt P14416, F110L); assay: Gαi/o-mediated cAMP inhibition (GloSensor), mutant; type: cell-based; settings: DRD2 F1103.28L (b138 head prints DRD2 F1063.28L)
T5 construct: expressed in transfected cells; host or cells: HEK293T (ATCC CRL-11268)
T5 sequence (P14416 whole entry F110L): as the sequence (P14416 whole entry) above, with F110L counted along it

DRD2 (D2 long receptor) [7] = biological target: T3, DRD2 (D2 long receptor); assay: β-arrestin2 recruitment (Tango), HTLA cells; type: cell-based
DRD3 = DRD3 (Homo sapiens, UniProt P35462); assay: β-arrestin2 recruitment (Tango); type: cell-based; settings: DRD3; Tango; read-out: EC50 ± SEM
DRD3, sequence (P35462 whole entry): as the sequence (P35462 whole entry) above

DRD4 (D4.4 variant) [8] = biological target: T4, DRD4 (D4.4 variant); assay: β-arrestin2 recruitment (Tango); type: cell-based; settings: DRD4; Tango; read-out: EC50 ± SEM
DRD2 F1103.28L [9] = biological target: T5, DRD2 F1103.28L; assay: β-arrestin2 recruitment (Tango), mutant; type: cell-based
DRD3 F1063.28A [10] = biological target: T2, DRD3 F1063.28A; assay: cell-based; type: cell-based; settings: DRD3 F1063.28A; Tango; read-out: EC50 ± SEM
DRD2 F1103.28A [11] = biological target: T6, DRD2 F1103.28A (Homo sapiens, UniProt P14416, F110A); type: binding; set-up: expressed in transfected cells; host or cells: HEK293T (ATCC CRL-11268)
T6 sequence (P14416 whole entry F110A): as the sequence (P14416 whole entry) above, with F110A counted along it

DRD2 F1103.28A [12] = biological target: T6, DRD2 F1103.28A; assay: Gαi/o-mediated cAMP inhibition (GloSensor), mutant; type: cell-based; set-up: expressed in transfected cells; host or cells: HEK293T (ATCC CRL-11268)
DRD2 F1103.28A [13] = biological target: T6, DRD2 F1103.28A; assay: β-arrestin2 recruitment (Tango), mutant; type: cell-based; set-up: expressed in transfected cells; host or cells: HEK293T (ATCC CRL-11268)

DRD2 (D2 long receptor) wild-type, sequence (P14416 whole entry): as the sequence (P14416 whole entry) above

CCOc1cccc2cc(C(C)NCC3(O)CCCC3)oc12.Cl (racemic) [O4LE5]
Ki ([1]; DRD2, [3H]-methylspiperone (0.8-1.0 nM), read-out: Ki): 9.55 µM
pKi ± SEM ([1]; DRD2 wild-type): 5.02±0.07
Ki (DRD3 wild-type; DRD3, [3H]-methylspiperone (0.8-1.0 nM), read-out: Ki): 1020 nM
pKi ± SEM (DRD3 wild-type; DRD3 wild-type): 5.99±0.02
Ki [2]: > 10 µM
pKi ± SEM (DRD3 F1063.28A [3]; DRD3 F1063.28A): 5.37±0.13
Ki (DRD3 F1063.28A [3]; DRD3 F1063.28A, read-out: Ki): 4.27 µM
affinity decreased, mutant vs wild type (DRD3 F1063.28A [3]; DRD3 Phe106^3.28Ala vs wild-type DRD3): 4.19 fold
EC50 (DRD2 (D2 long receptor) [4]; DRD2, agonist, Gαi/o-mediated cAMP inhibition, read-out: EC50 ± SEM): 20.3 ± 9.06 nM
Emax relative to quinpirole response (DRD2 (D2 long receptor) [4]; DRD2, cAMP inhibition): 90.02%
response, Fig_S11d dose-response source data (DRD2 (D2 long receptor) [4]; Log[Drug] -6.52): 89.8047
response, Fig_S11d dose-response source data (DRD2 (D2 long receptor) [4]; Log[Drug] -7): 65.0385 and 57.9248 and 60.2207 and 80.9341 and 74.6312 and 79.279 and 82.9188 and 82.7948 and 77.3857
response, Fig_S11d dose-response source data (DRD2 (D2 long receptor) [4]; Log[Drug] -7.52): 39.5571 and 33.4973 and 24.3511 and 57.6284 and 63.6471 and 63.1957 and 71.0585 and 72.7209 and 64.8058
response, Fig_S11d dose-response source data (DRD2 (D2 long receptor) [4]; Log[Drug] -8): 9.5215 and 11.2717 and 13.7182 and 48.383 and 49.6202 and 44.9055 and 35.7008 and 48.9506 and 59.4463
response, Fig_S11d dose-response source data (DRD2 (D2 long receptor) [4]; Log[Drug] -8.52): -3.6708 and -0.0387 and -1.4878 and 27.1503 and 28.8723 and 39.8732 and 29.7954 and 40.3159 and 28.6789
response, Fig_S11d dose-response source data (DRD2 (D2 long receptor) [4]; Log[Drug] -9): 6.661 and 7.056 and -0.9609 and 40.0738 and 31.9486 and 25.4952 and 24.1382 and 31.3586 and 28.8029
response, Fig_S11d dose-response source data (DRD2 (D2 long receptor) [4]; Log[Drug] -9.52): 12.3068 and -0.3586 and -16.1104 and 30.2934 and 20.4294 and 33.0687 and 10.7891 and 20.7389 and 17.29
response, Fig_S11d dose-response source data (DRD2 (D2 long receptor) [4]; Log[Drug] -10): -16.468 and 1.297 and -13.024 and 16.0491 and 30.494 and 18.4566 and 11.0621 and 15.5283 and 8.9282
response, Fig_S11d dose-response source data (DRD2 (D2 long receptor) [4]; Log[Drug] -10.52): -14.0967 and 4.779 and -14.8495 and 16.7012 and 24.0741 and 20.5632 and 2.204 and 13.0967 and 9.052
response, Fig_S11d dose-response source data (DRD2 (D2 long receptor) [4]; Log[Drug] -11): -2.7111 and 12.7961 and -15.5834 and 17.8548 and 27.4178 and 14.9457 and -4.6938 and 9.499 and 12.5508
response, Fig_S11d dose-response source data (DRD2 (D2 long receptor) [4]; Log[Drug] -11.52): -7.9428 and 7.113 and -8.1498 and 19.6269 and 38.218 and 27.7856 and 20.6149 and 38.3557 and 9.623
response, Fig_S11d dose-response source data (DRD2 (D2 long receptor) [4]; Log[Drug] -12): -24.8425 and -18.4063 and -14.0215 and 7.974 and -7.6244 and -4.264 and -3.478 and -21.2934 and -10.4999
EC50 (DRD4 (D4.4 variant) [5]): > 10 µM
EC50 (DRD2 F1103.28L [6]): > 10 µM
response, Fig_S11e dose-response source data (DRD2 (D2 long receptor) [7]): 4.195 and 4.191
Emax relative to quinpirole response (DRD2 (D2 long receptor) [7]; DRD2, Tango): 69.77%
EC50 (DRD2 (D2 long receptor) [7]; DRD2, β-arrestin2 recruitment (Tango), read-out: EC50 ± SEM): 591 ± 160 nM
response, Fig_S11e dose-response source data (DRD2 (D2 long receptor) [7]; Fig_S11e, Log[Drug] -6.52, replicate values): 29.7819
response, Fig_S11e dose-response source data (DRD2 (D2 long receptor) [7]; Fig_S11e, Log[Drug] -7, replicate values): 14.8195 and 15.4716 and 11.9245 and 14.4902 and 10.6077 and 13.3375 and 15.5705 and 13.1474 and 10.3991
response, Fig_S11e dose-response source data (DRD2 (D2 long receptor) [7]; Fig_S11e, Log[Drug] -7.52, replicate values): 5.649 and 7.617 and 8.153 and 5.088 and 5.357 and 5.685 and 6.459 and 7.136 and 7.327
response, Fig_S11e dose-response source data (DRD2 (D2 long receptor) [7]; Fig_S11e, Log[Drug] -8, replicate values): 4.53 and 4.924 and 7.437 and 4.448 and 4.588 and 4.761 and 4.942 and 5.222 and 4.354
response, Fig_S11e dose-response source data (DRD2 (D2 long receptor) [7]; Fig_S11e, Log[Drug] -8.52, replicate values): 5.418 and 3.578 and 5.097 and 4.558 and 4.204 and 3.944 and 4.259 and 4.448
response, Fig_S11e dose-response source data (DRD2 (D2 long receptor) [7]; Fig_S11e, Log[Drug] -9, replicate values): 5.551 and 4.294 and 3.766 and 4.187 and 3.973 and 4.022 and 3.996 and 4.409 and 5.115
response, Fig_S11e dose-response source data (DRD2 (D2 long receptor) [7]; Fig_S11e, Log[Drug] -9.52, replicate values): 3.774 and 3.895 and 3.825 and 3.992 and 4.187 and 3.4742 and 3.994 and 4.11
response, Fig_S11e dose-response source data (DRD2 (D2 long receptor) [7]; Fig_S11e, Log[Drug] -10, replicate values): 3.543 and 4.048 and 4.417 and 4.083 and 4.005 and 3.8893 and 4.472 and 4.295 and 4.703
response, Fig_S11e dose-response source data (DRD2 (D2 long receptor) [7]; Fig_S11e, Log[Drug] -10.52, replicate values): 4.321 and 3.611 and 3.873 and 3.908 and 3.996 and 3.919 and 3.699 and 4.48 and 4.116
response, Fig_S11e dose-response source data (DRD2 (D2 long receptor) [7]; Fig_S11e, Log[Drug] -11, replicate values): 3.51 and 3.391 and 4.782 and 4.294 and 4.024 and 3.997 and 3.756 and 4.401 and 4.222
response, Fig_S11e dose-response source data (DRD2 (D2 long receptor) [7]; Fig_S11e, Log[Drug] -11.52, replicate values): 3.707 and 4 and 3.724 and 4.053 and 3.84 and 3.862 and 4.291 and 4.0833 and 3.6644
response, Fig_S11e dose-response source data (DRD2 (D2 long receptor) [7]; Fig_S11e, Log[Drug] -12, replicate values): 4.3048 and 3.879 and 4.62 and 3.975 and 4.688 and 4.168 and 3.647 and 4.316 and 4.328
EC50 (DRD3): > 10 µM
EC50 (DRD4 (D4.4 variant) [8]): > 10 µM
EC50 (DRD2 F1103.28L [9]): > 10 µM
EC50 (DRD3 F1063.28A [10]): > 10 µM
pKi ± SEM (DRD2 F1103.28A [11]; DRD2 F1103.28A): 6.03±0.14
Ki (DRD2 F1103.28A [11]; DRD2 F1103.28A, read-out: Ki): 930 nM
affinity increase (binding enhanced), mutant vs wild type (DRD2 F1103.28A [11]; DRD2 Phe110^3.28Ala vs wild-type DRD2): 10.27 fold
EC50 (DRD2 F1103.28A [12]): 0.05 ± 0.04 nM
Emax relative to quinpirole response (DRD2 F1103.28A [12]): 13.66%
EC50 (DRD2 F1103.28A [13]): > 10 µM
